Reference: BindingDB's records for doi:10.1016/j.bmc.2011.10.064 (Saitama University, 2011)

Assays:
[1] = Inhibition of Human influenza virus A/Aichi/2/68 (H3N2) hemagglutininin activity in chicken erythrocytes after 1 hr
[2] = Inhibition of Human influenza virus A/PR/8/34 (H1N1) hemagglutininin activity in chicken erythrocytes after 1 hr

| Compound | IC50 [1] [µM] | IC50 [2] [µM] |
| --- | --- | --- |
| C=CC(=O)NCCCCCC(=O)N[C@H]1[C@H]([C@H](O)[C@H](O)CO)O[C@@](SCCCCCCCCCCCC)(C(=O)O)C[C@@H]1O | 7.81 | 7.81 |
| C=CC(=O)N[C@H]1[C@H]([C@H](O)[C@H](O)CO)OC(O)(C(=O)O)C[C@@H]1O (stereo partly specified) | > 250 | > 250 |
| C=CC(=O)N[C@H]1[C@H]([C@H](O)[C@H](O)CO)O[C@@](SCCCCCCCCCCCC)(C(=O)O)C[C@@H]1O | 3.9 | 7.81 |
